The text below walks through data of article PMC7855930, “Nontoxic Cobalt(III) Schiff Base Complexes with Broad‐Spectrum Antifungal Activity” (Chemistry (Weinheim an Der Bergstrasse, Germany), 2020).

Where “and” joins values, the source holds several entries; their conditions need not be identical. Identical values can stand only once. Like-named read-outs stand apart in the source and are kept apart here.

By CC50 is commonly meant the concentration at which the toxic effect on the cells reaches its halfway point. Broadly, the MIC is the smallest concentration in the dilution series that meets the test's criterion for growth inhibition.

Data set [1] concerns HEK293 cells. Briefly: Cytotoxicity assay (resazurin). As to conditions: 20 h incubation, 0.8–100 μM; read-out: Tox CC50 (cytotoxicity against HEK293 cells). The format is cell-based, human. As for the experimental part:
(§1) Cytotoxicity assay: HEK293 ATCC CRL‐1573 human embryonic kidney cells suspended in DMEM media (Gibco; 11330332) supplemented with 10 % FBS (GE; SH30084.03) and 100 U mL^−1 each penicillin/streptomycin (Invitrogen; 15070063) were counted manually in a Neubauer haemocytometer and seeded into 384‐well, black wall, clear bottom tissue culture plates (Corning; Cat. No. 3712) at 5000 cells per well in a volume of 20 μL. Manually, 20 μL of each compound dilution was plated in duplicate on the cells, for a final concentration range of 0.8–100 μM. The cells were incubated together with the compounds for 20 h at 37 °C, 5 % CO2.
(§2) Cytotoxicity (or cell viability) was measured by fluorescence, ex: 560/10 nm, em: 590/10 nm (F560/590), after addition of 5 μL of 25 μg mL^−1 resazurin ([…]; Sigma R7017) and after further incubation for 3 h at 37 °C in 5 % CO2, using media only as negative control and cells without inhibitors as positive control. CC50 (concentration at 50 % cytotoxicity) were calculated by curve fitting the inhibition values vs. log(concentration) of four replicates using a sigmoidal dose‐response function, with variable fitting values for bottom, top and slope using Prism 8. Tamoxifen (Sigma T5648) was used as internal control on each plate.

The subject of data set [2] is C. albicans ATCC 90028. The experiment in a line: Antifungal MIC assay (broth microdilution in YNB). The format is cell-based, Candida albicans. From the text:
(§3) Yeast strains: Candida albicans (ATCC 90028, NCCLS 11), Cryptococcus neoformans (ATCC 208821, H99 type strain), Candida tropicalis (ATCC 750, type strain), Candida glabrata (ATCC 90030, NCCLS 84) and Cryptococcus deuterogattii (ATCC 32609, type strain) were obtained from the American Type Culture Collection (ATCC). Cryptococcus deuterogattii (CBS 7750), Candida auris (CBS 10913) and Candida auris (CBS 12373) were obtained from the CBS‐KNAW culture collection. The strains were maintained on glycerol/YPD (yeast extract‐peptone dextrose) broth (20:80 v/v) at −80 °C.
Antifungal minimum inhibitory concentration (MIC) assay: The cobalt complexes and antifungal control compounds were serially diluted in 50 μL of Yeast Nitrogen Broth (YNB; BD, Cat No. 233520 supplemented with 2 % glucose and 10 mM ammonium sulfate) two‐fold across the wells of non‐binding surface (NBS) 96‐well plates (Corning; Cat. No. 3641). Plates were set up in quadruplicate for each strain tested, and two biological replicates were conducted on separate assay days.
Yeast strains were cultured from glycerol onto YPD (Becton Dickinson 242720) agar at 30 °C for 72 h. For each strain, a minimum of five single colonies were taken from the agar plate and dissolved in sterile water and adjusted to form a yeast suspension of 1×10^6 to 5×10^6 CFU mL^−1 (as determined by OD530). The suspension was subsequently diluted into YNB media, and added to each well of the compound containing plates, giving a final cell density of 2.5×10^3 CFU mL^−1 and a total volume of 100 μL. Plates were covered and incubated at 35 °C for 36 h without shaking.
Growth inhibition of all strains was determined visually where the MIC was recorded as the lowest compound concentration with no visible growth. Fluconazole (Sigma F8929), ketoconazole (Sigma K1003) and micafungin (Sigma SML2288) were used as internal positive inhibitor controls for every strain tested.

For data set [3], the system named is panel of eight Candida and Cryptococcus strains. Briefly: Antifungal MIC, summary over the extended panel. The format is cell-based. As to conditions: whole yeast panel, tested alone.
Excerpt: as §3
Antifungal minimum inhibitory concentration (MIC) assay: The cobalt complexes and antifungal control compounds were serially diluted in 50 μL of Yeast Nitrogen Broth (YNB; BD, Cat No. 233520 supplemented with 2 % glucose and 10 mM ammonium sulfate) two‐fold across the wells of non‐binding surface (NBS) 96‐well plates (Corning; Cat. No. 3641). […]
Yeast strains were cultured from glycerol onto YPD (Becton Dickinson 242720) agar at 30 °C for 72 h. For each strain, a minimum of five single colonies were taken from the agar plate and dissolved in sterile water and adjusted to form a yeast suspension of 1×10^6 to 5×10^6 CFU mL^−1 (as determined by OD530). […]
Growth inhibition of all strains was determined visually where the MIC was recorded as the lowest compound concentration with no visible growth. […]

Data set [4] relates to human red blood cells. The experiment in a line: Haemolysis assay. The format is cell-based. As to conditions: 1 h at 37 °C. The method, then:
Haemolysis assay: Human whole blood (Australian Red Cross Blood Service) was washed three times with three volumes of 0.9 % NaCl and resuspended in a concentration of 0.5×10^8 cells mL^−1, determined by manual cell count in a Neubauer haemocytometer. Washed cells were added to compound containing plates (384‐well round bottom polypropylene plates, Corning 3657) for a final volume of 50 μL, shaken for 10 min and incubated for 1 h at 37 °C, without shaking. After incubation, the plates were centrifuged at 1000 g for 10 min to pellet cells and debris, 25 μL of the supernatant was then transferred to reading plates (384‐well flat bottom polystyrene plates, Corning CLS3680), with haemolysis determined by measuring the supernatant absorbance at […] (OD405), using cells without inhibitors as negative control and cells with 1 % Triton X‐100 (Sigma T8787) as positive control. HC10 and HC50 (concentration at which 10 and 50 % haemolysis is induced, respectively) were calculated by curve fitting the inhibition values vs. log(concentration) of four replicates using a sigmoidal dose–response function with variable fitting values for top, bottom and slope using Prism 8. Melittin (Sigma M2272) was used as positive haemolytic control on each plate. Human ethics approval from the University of Queensland Institutional Human Research Ethics Committee was obtained for use of human blood for haemolysis studies (approval number 201400003).

A short description of data set [5]: Cyclic voltammetry. The format is physicochemical. As to conditions: DMF with 0.1 M TBAP (this work). As for the experimental part: Cyclic voltammetry: Electrochemical measurements were carried out in the same manner as reported previously. ^[25b] Experiments were conducted using a Pine WaveNow potentiostat with a three‐electrode setup consisting of a glassy carbon working electrode, a platinum counter electrode, and an Ag wire quasi‐reference electrode. Complexes were dissolved in anhydrous DMF with 0.10 M [Bu4N][PF6] (TBAP) as the supporting electrolyte. Potentials were referenced using an internal standard of the ferrocene/ferricenium couple at 0.45 V vs. the saturated calomel electrode (SCE). ^[33] The sample cell was deoxygenated by bubbling nitrogen gas through the solution prior to analysis and maintained under a blanket of nitrogen during the experiment.

The test system of data set [6] is C. neoformans. The experiment in a line: CO-ADD screening, broth microdilution MIC, yeast reference strain. The format is cell-based. The text has this: (§4) As previously mentioned, complexes 1, 2 and 4 were studied in earlier biological assays. […] In our CO‐ADD screening, using broth microdilution (BMD) MIC assays (Table S2), complexes 1–3 were effective at killing drug‐susceptible yeast reference strains of C. albicans and C. neoformans while displaying no antibacterial activity.

The subject of data set [7] is C. albicans. The description is as above. The format is cell-based.
Excerpt: as §4

Data set [8] in a line: Cytotoxicity assay (resazurin). The format is cell-based, human. As to conditions: human, HEK293 cells (ATCC CRL-1573); 20 h incubation, 0.8–100 μM; read-out: Tox CC50 (cytotoxicity against HEK293 cells). The method, then: as §1, §2
Setting [9] is: range of MICs, n=8, 35 °C, 36 h, visual, read-out: MIC C. albicans ATCC 90028.
[10] abbreviates: Candida albicans, ATCC90028, Table S1, read-out: MIC Candida albicans ATCC 90028.
Where [11] appears, read: Candida albicans, ATCC90028, range of MICs, n=8, 35 °C, 36 h, visual, read-out: MIC C. albicans ATCC 90028.

Turning to `O=[N+]([O-])[O-].O=[N+]([O-])[O-].[Co+2]` [Co, Co(NO3)2, reference compound], the CC50 in data set [1] is over 100 µM. The “MIC Candida albicans ATCC 90028” value in data set [2] (Table S1) is over 29.1 µg/mL. In data set [2] (setting [9]), the MIC is on record as over 100 µM. In data set [3], the “MIC, no detectable antifungal effect up to” value is over 100 µM. In data set [4], the “Haem HC10 (concentration at which 10 % haemolysis is reached)” value was over 100 µM.

With `CC1=[N+]2N=C(N)[S][Co-3]23([n+]2ccc(N(C)C)cc2)([n+]2ccc(N(C)C)cc2)[S]C(N)=N[N+]3=C1C.O=[N+]([O-])[O-]` [Compound 3, [Co(ATS)(DMAP)2]NO3], the CC50 in data set [1] was over 100 µM. Further, the “MIC Candida albicans ATCC 90028” value in data set [2] (Table S1) came out at 0.93 µg/mL. Besides, in data set [2] (setting [9]), the MIC stood at 1.56 µM. In addition, in data set [5], the “First reduction E pc” value was −0.69 V vs. SCE and the “Second reduction E 1/2” value is recorded as −1.17 V vs. SCE. For the same compound, in data set [4], the “Haem HC10 (concentration at which 10 % haemolysis is reached)” value is 73.1 µM and 73.1 ± 20.4 µM.

Regarding `O=[N+]([O-])[O-].[NH3+][Co-3]123([NH3+])[O]c4c(F)cccc4C=[N+]1c1ccccc1[N+]2=Cc1cccc(F)c1[O]3` [Compound 7, [Co(3F‐salophen)(NH3)2]NO3], the CC50 in data set [1] is over 100 µM. In addition, the “MIC Candida albicans ATCC 90028” value in data set [2] (Table S1) was in the range of 23.9 to 47.8 µg/mL. For the same compound, the “MIC C. albicans ATCC 90028” value in data set [2] (range of MICs, n=8, 35 °C, 36 h, visual) fell in the range of 50 to 100 µM. In data set [5], the “First reduction E pc” value is on record as −0.75 V vs. SCE and the “Second reduction E 1/2” value was −1.08 V vs. SCE. In addition, the “Haem HC10 (concentration at which 10 % haemolysis is reached)” value in data set [4] is over 100 µM. In data set [6], the “Antifungal activity, C. neoformans reference strain” value is given as “neither antibacterial nor antifungal activity”. Moreover, in data set [7], the “Antifungal activity, C. albicans reference strain” value was “neither antibacterial nor antifungal activity”.

Turning to `CC(=N\NC(N)=S)/C(C)=N/NC(N)=S` [Compound L1], the CC50 at 20 h in data set [8] is over 100 µM. Also, the minimal inhibitory concentration (MIC) in data set [2] (setting [10]) was over 23.2 µg/mL; in data set [2] (setting [11]), over 100 µM. Besides, the “Haem HC10 (concentration at which 10 % haemolysis is reached)” value in data set [4] is over 100 µM.

In the case of `CC(/C=C(\O)C(F)(F)F)=N\CC/N=C(C)/C=C(\O)C(F)(F)F` [Compound L2], in data set [8], the CC50 at 20 h is over 100 µM. Also, the MIC in data set [2] (setting [10]) is over 33.2 µg/mL; in data set [2] (setting [11]), over 100 µM. In addition, the “Haem HC10 (concentration at which 10 % haemolysis is reached)” value in data set [4] was over 100 µM.

Regarding `Oc1c(F)cccc1/C=N/CC/N=C/c1cccc(F)c1O` [Compound L3], the CC50 at 20 h in data set [8] is over 100 µM. In addition, the MIC was over 30.4 µg/mL in data set [2] (setting [10]) and over 100 µM in data set [2] (setting [11]). Further, the “Haem HC10 (concentration at which 10 % haemolysis is reached)” value in data set [4] is over 100 µM.

“[Co(3F‐salophen)(3F‐BnNH2)2]NO3 [Compound 6]”: in data set [1], the CC50 is over 100 µM. Moreover, the “MIC Candida albicans ATCC 90028” value in data set [2] (Table S1) is 69.4 µg/mL. Also, in data set [2] (setting [9]), the minimal inhibitory concentration (MIC) came out at 100 µM. In data set [5], the “First reduction E pc” value was −0.59 V vs. SCE and the “Second reduction E 1/2” value is −1.06 V vs. SCE. The “Haem HC10 (concentration at which 10 % haemolysis is reached)” value in data set [4] was over 100 µM.
